{
  "source": "patent US5830910A",
  "about": "(priority 1995, dated 1998)",
  "test_system": "cultured hippocampal neurons",
  "assay": "neurotoxicity of combined exposure to Aβ and glutamate",
  "format": "cell-based, rat",
  "details": "100 nM; 50 μM Aβ plus 20 μM glutamate, 48 h",
  "excerpt": "Dissociated embryonic rat hippocampal cell cultures were established and maintained. All procedures conformed with the NIH Guide for the Care and Use of Laboratory Animals and were approved by the University of Kentucky Animal Care and Use Committee. Cultures were maintained on a polyethyleneimine-coated substrate in plastic 35-mm dishes or 96 wall plates (for cell survival studies) or glass-bottom 35-mm dishes (for [Ca^2+ ]i imaging studies). The cell density was ^~ 70-100 cells/mm^2. Cells were maintained in Eagle's minimum essential medium supplemented 10% with fetal bovine serum and containing 20 mM sodium pyruvate. […]\nNeuronal survival was quantified by counting viable neurons in the same microscope fields (10x objective) immediately before experimental treatment and at time points after treatment. In addition, cells were grown in 96-well plates and Alamar blue fluorescence (Alamar Laboratories)was quantified by using a fluorescence plate reader. […] Viability of the remaining neurons was assessed by morphological criteria. […] Survival values were expressed as percentages of the initial number of neurons present before experimental treatment. […]\nFIG. 13. […] Neuronal survival was assessed 48 h after treatment. […]",
  "data": [
    {"smiles": "C=C1[C@@H](C)[C@H]2[C@H](Cc3ccccc3)NC(=O)[C@]23[C@H](OC(C)=O)/C=C/[C@@](C)(O)C(=O)[C@@H](C)C/C=C/[C@H]3[C@@H]1O", "note": "[Cytochalasin D, cytochalasin D]", "values": [
      {"measurement": "effect on neurotoxicity of combined Aβ and glutamate", "value": "attenuated significantly"}
    ]}
  ]
}
